# Tested on: Prolin- und Lysinhydroxylase
# Experiment: CCl4-induced liver injury (fibrosis) in rats: collagen markers after treatment with the compound
# Assay type: in vivo, Ratten
# Details: rats given CCl4, then compound, Dosierung 2 x 25 mg
# Excerpt: Die Aktivität der Fibrogenase kann durch radioimmunologische Bestimmung des N-terminalen Propeptids des Kollagens Typ III oder der N- bzw. C-terminalen Quervernetzungsdomäne des Kollagens Typ IV (7s-Kollagen bzw. Typ-IV-Kollagen-NC₁) im Serum bestimmt werden.
# Zu diesem Zweck wurden die Hydroxyprolin-, Prokollagen-III-Peptid-, 7s-Kollagen- und Typ-IV-Kollagen-NC₁-Konzentrationen in der Leber von • a) unbehandelten Ratten (Kontrolle) • b) Ratten, denen Tetrachlorkohlenstoff verabreicht wurde (CCl₄-Kontrolle) • c) Ratten, denen zunächst CCl₄ und anschließend eine erfindungsgemäße Verbindung verabreicht wurde gemessen (diese Testmethode wird beschrieben von Rouiller, C., experimental toxic injury of the liver; in The Liver, C. Rouiller, Vol. 2, S. 335-476, New York, Academic Press, 1964).
# Die pharmakologische Wirksamkeit der erfindungsgemäßen Substanzen wurde in einer Versuchsreihe (s. Tabelle 1) untersucht. Dabei zeigte sich eine deutliche Hemmung der Prolin- und Lysinhydroxylase.
compound,measurement,setting,value
"COC(=O)C(C)(C)COC(=O)c1ccc(C(=O)OCC(C)(C)C(=O)OC)nc1 [compound 4, Pyridin-2,5-dicarbonsäure-bis(2-methoxycarbonyl-2,2-dimethylethyl)ester]",Hydroxy-prolin,"CCl4-Kontrolle 0.773, Kontrolle 0.289",0.482 µg/mg Leber
same,Prokollagen-III-Peptid,"CCl4-Kontrolle 73.9, Kontrolle 11.1",37.2 ng/mL
same,Typ-IV-Kollagen-NC1,"CCl4-Kontrolle 168.4, Kontrolle 23.5",100.8 ng/mL
same,7s-Kollagen,"CCl4-Kontrolle 308.7, Kontrolle 22.8",121.4 ng/mL
